# Data reported in EP3324923B1, “COMPOSITIONS AND METHODS USING PALYTHINE” (King's College London, priority 2015, dated 2017).
# Assays:
# HaCaT cells = test: UVR induced gene expression by qPCR (TaqMan, ΔΔCT); assay type: cell-based, human
# Method: The gene expression analysis was performed on HaCat cells exposed as previously described. Following irradiation growth media was replaced RNA extraction was carried out 12 hours later. RNA extraction was carried out using the mirVana miRNA Isolation kit (Life Technologies, Paisley, UK) according to the manufacturers protocol for total RNA extraction. RNA quality was tested using RNA 6000 Nano Kit according to the manufacturers instruction.
# Total RNA was then converted to cDNA using the High Capacity cDNA Reverse Transcription Kit (Applied Biosystems, Paisley, UK) according to manufacturers instructions. qPCR was performed using TaqMan Gene Expression Assays (Applied Biosystems) according to the manufacturers protocol with the following TaqMan FAM labelled DNA probes IL-20, IL-8, IL-6, TFRC, HMOX-1, MMP-3, MMP-12. VIC labelled GAPDH was used as the housekeeping gene. For each gene the fold change was measured using the ΔΔCT method.
# Cells irradiated with 5J/cm^2 SSR with 0%, 0.3%, 4% and 10% palythine. RNA was extracted, cDNA synthesised, and gene expression analysed by qCR. […] The mean fold change ± SD was analysed with n≥3. The difference compared to 0% irradiated sample was analysed using ANOVA. Significance is expressed by *.
# Cells irradiated with 5J/cm^2 SSR with 0%, 0.3% & 4% palythine or Helionori. RNA was extracted, cDNA synthesised, and gene expression analysed by qPCR. Data presented in figure 13 show the protection offered by palythine according to the invention compared with protection offered by prior art composition Helionori, as assessed by UVR induced gene expression.
# (§1) DNA damage was then measured using the comet assay and IHC-IF looking at the specific DNA lesions of cyclobutane pyrimidine dimers (CPD) and 8-oxoGua. A percentage reduction in general and specific DNA damage was then determined by comparing cells irradiated with and without sunscreen compositions. Antioxidant ability was detected using H2DCFDA, which fluoresces when reacting with ROS with the addition of palythine post exposure. SSR induced gene expression covering a range of different markers (inflammation, photoageing, oxidative damage) was assessed using qPCR. The ability of palythine to reduce this gene expression was then assessed.
# HaCaT keratinocytes = test: Reactive oxygen species assay by FACS (carboxy-H2DCFDA), UV filtering and antioxidant effect, Example 16; assay type: cell-based, human; details: for ROS production compared to irradiated control: 20J/cm^2 of SSR, n=5, p<0.0001
# Method: as §1
# All assays were performed on HaCat cells grown as a 70-80 % confluent monolayer in multiwell plates. They were washed three times in PBS and covered with palythine dissolved in PBS at differing concentrations (0, 0.1, 0.3 %, 4 % and 10 % w/v). The cells were then irradiated with either SSR or UVA radiation (5-20 J/cm^2 or 20 J/cm^2 respectively). After irradiation the palythine solution was removed and the cells washed a further three times and replaced in media or processed immediately depending on the experimental design.
# HaCat cells were irradiated as above or for the anti-oxidant studies, cells were also incubated with palythine post irradiation. Cells were then incubated with 10uM carboxy-H2DCFDA (Invitrogen, UK) in PBS for 30 mins in the dark at 37 °C, 5 % CO2. Cells were washed in PBS, trypsinised for 10 minutes at 37 °C, centrifuged at 1200 rpm for 5 minutes at room temperature and resuspended in PBS and counterstained with DAPI for analysis by FACS. This was carried out with a Becton Dickinson FACSAria II. Cells were gated to only analyse live cells (DAPI negative) and the average mean green intensity per condition was then plotted from at least 10,000 measured events. Analysis was carried out using FlowJo 8.7 (USA).
# [1] = Photostability under increasing doses of solar simulated radiation (absorbance); assay type: physicochemical
# Method: palythine was extracted from the red algae Palmaria decipiens using a methanol extraction (Confirmed by HPLC & LC-MS). The absorbance profile was determined and then the extract was exposed to increasing doses of solar simulated radiation (SSR) from a solar simulator (conforming to COLIPA standards). The absorbance profile was measured to determine photostability. Compositions according to the invention (in this example solutions of palythine) were prepared at different palythine concentrations (0.3% to 10%), as well as controls comprising 0% palythine, and HaCat keratinocytes were irradiated with SSR or UVA radiation through the solutions, which were placed on top of the cells.
# Palythine was exposed to increasing doses of solar simulated radiation and absorbance measured. The absorbance spectrum of the palythine was measured between 280-400 nm using a Spectra Max 384 Plus (Molecular Devices; California, USA) spectrophotometer. Referring to figure 18, we show the photostability of palythine after exposure to increasing doses of solar simulated radiation. Palythine (0.0001% w/v palythine extracted from red algae Chondrus yendoi in PBS) was exposed to increasing doses of solar simulated radiation and the absorbance was measured to determine photostability.
# [2] = Figure 8, RNA extraction 12 hours after irradiation, gene not responsive to UVR
compound,measurement,setting,value
COC1=C(NCC(=O)O)CC(O)(CO)CC1=N (centres unmarked) [palythine],"protection, UVR induced gene expression (decrease compared to the irradiated control)","HaCaT cells; 0.3% palythine, 5J/cm^2 SSR, figure 13",significant protection
same,HMOX-1 gene expression,"HaCaT cells; 0.3 % palythine, Figure 8, compared to the control",significantly reduced
same,MMP-12 gene expression compared to the control,HaCaT cells; [2],no effect
same,TFRC gene expression compared to the control,HaCaT cells; [2],no effect
same,expression of the genes compared to the irradiated control (containing no sunscreen),"HaCaT cells; IL-20, IL-6, IL-8, MMP-3, HMOX-1, 5J/cm^2 SSR, 0.3% & 4%",significant reduction
same,SSR induced differential gene expression for all markers investigated,"HaCaT cells; palythine at 0.3% or greater, all concentrations, p=<0.05",significantly reduced
same,ROS production compared to irradiated control,HaCaT keratinocytes; 10% palythine post exposure (anti-oxidant),significant reduction
same,ROS production compared to irradiated control,HaCaT keratinocytes; palythine 0.3-10%w/v added pre exposure,significant reduction
same,ROS production due to SSR irradiation (anti-oxidant properties),"HaCaT keratinocytes; Example 14, H2DCFDA, addition of palythine post exposure, p=<0.05",significant reduction
same,photostability,"[1]; after 40SED of solar simulated radiation, 0.0001% w/v palythine from Chondrus yendoi in PBS, absorbance 280-400 nm",extremely photostable with negligible photodegradation
same,photostability,"[1]; after 60 standard erythema doses (SED) of SSR, palythine from Palmaria decipiens",extremely photostable
